{"source": "patent US12221418B2", "about": "(EYE HOSPITAL, WENZHOU MEDICAL UNIVERSITY, priority 2021, dated 2025)", "key": {"[1]": {"test": "Stability in high humidity environment (moisture absorption weight gain)", "format": "physicochemical", "conditions": "25° C., RH90%±5%", "protocol": "A moisture absorption gain ratio was calculated."}, "[2]": {"conditions": "pH 7.5"}, "[3]": {"test": "Photo- and thermal stability in the solvent, HPLC"}, "[4]": {"system": "primary human corneal epithelial cells", "test": "Hypertonic inflammatory cell model, RT-PCR of inflammation-related cytokine mRNA", "format": "cell-based", "conditions": "Ps<0.01", "protocol": "Primary human cell culture: the remaining limbus of the donor cornea used in a surgery was treated with an ophthalmic instrument into a tissue block carrying corneal stem cells, the tissue block was pasted at the bottom of a cell culture dish, cultured in an SHEM medium, and placed in a cell culture incubator with a temperature of 37° C., CO2 content of 5% and humidity of 90%; primary human corneal epithelial cells crawling out of the limbal stem cells can be seen after 3-5 days; and the cells were grown to a fused state of 70%-90% for an experiment.\nPreparation of solution: (1) preparation of hypertonic liquid (500 mOsm): 90 mmol/L NaCl solution was added to a serum-free medium. (2) Preparation of a tested drug solution: 10 mg of the above prepared product was dissolved in 1 mL of 37° C. DMSO solution, prepared into […] mother liquor, and stored in a −20° C. refrigerator for later use; and the mother liquor was diluted with a serum-free medium to prepare drug solutions having final concentrations of 1 μmol/L and 10 μmol/L for an experiment. […]\n(§1) Real-time PCR (RT-PCR): mRNA expressions of different groups of IL-6, IL-1β, IL-17A, IL-18, TNF-α, and NLRP3 were detected using RT-PCR. […] RNA was extracted from the cells according to an instruction of an RNA extraction kit, and a total amount of RNAs required to synthesize a cDNA template was calculated based on a measured concentration. cDNA was synthesized by an M-MLV reverse transcription kit, and the cDNA obtained by reverse transcription was stored at −20° C. for subsequent PCR amplification. […]\n(§2) A SYBR Green fluorescent dye method was used for RT-PCR detection. A relatively quantified mRNA expression quantity of a target gene was calculated. […]\nReal-time PCR (RT-PCR): mRNA expressions of different groups of IL-6, IL-1β, IL-17A, IL-18, TNF-α, and NLRP3 were detected using RT-PCR. […]"}, "[5]": {"system": "SV40 corneal epithelial cells", "test": "Hypertonic inflammatory cell model, RT-PCR of inflammation-related cytokine mRNA", "format": "cell-based, human", "conditions": "hypertonic model 500 mOsm, four hours of administration, vs. HS group, Ps<0.01", "protocol": "SV40 cell culture: SV40 cells were cultured in a DMEM/F12 medium containing 10% fetal bovine serum, and added with insulin and a human epidermal growth factor at the same time, so that a final concentration of insulin in the medium was 5 μg/mL and a final concentration of the human epidermal growth factor was 10 ng/mL. The medium was routinely subcultured in a cell culture incubator with a temperature of 37° C., CO2 content of 5% and a humidity of 90%. The cells were grown to a fused state of 70%-90% for an experiment.\nPreparation of solution: (1) preparation of hypertonic liquid (500 mOsm): 90 mmol/L NaCl solution was added to a serum-free medium. […]\nas §1, §2"}}, "data": [{"molecule": "COc1ccc2cc3[n+](cc2c1OC)CCc1cc2c(cc1-3)OCO2", "note": "[Berberine base]", "values": [{"measurement": "Weight gain percentage of Day 5 (%)", "setting": "[1]", "result": 4.2, "unit": "%"}, {"measurement": "Weight gain percentage of Day 10 (%)", "setting": "[1]", "result": 6.7, "unit": "%"}, {"measurement": "Concentration in solvent", "setting": "[2]", "result": 24.45, "unit": "µg/mL"}, {"measurement": "C", "setting": "[3]; 0:00", "result": 24.45, "unit": "µg/mL"}, {"measurement": "Purity", "setting": "[3]; 0:00", "result": 97.35, "unit": "%"}, {"measurement": "C", "setting": "[3]; 40° C. (in dark place), 8:00", "result": 22.62, "unit": "µg/mL"}, {"measurement": "Purity", "setting": "[3]; 40° C. (in dark place), 8:00", "result": 97.17, "unit": "%"}, {"measurement": "C", "setting": "[3]; 40° C. (in dark place), Day 5", "result": 22.41, "unit": "µg/mL"}, {"measurement": "Purity", "setting": "[3]; 40° C. (in dark place), Day 5", "result": 97.02, "unit": "%"}, {"measurement": "C", "setting": "[3]; 40° C. (in dark place), Day 10", "result": 10.35, "unit": "µg/mL"}, {"measurement": "Purity", "setting": "[3]; 40° C. (in dark place), Day 10", "result": 96.86, "unit": "%"}, {"measurement": "C", "setting": "[3]; 60° C. (in dark place), 8:00", "result": 22.45, "unit": "µg/mL"}, {"measurement": "Purity", "setting": "[3]; 60° C. (in dark place), 8:00", "result": 97.17, "unit": "%"}, {"measurement": "C", "setting": "[3]; 60° C. (in dark place), Day 5", "result": 21.31, "unit": "µg/mL"}, {"measurement": "Purity", "setting": "[3]; 60° C. (in dark place), Day 5", "result": 96.96, "unit": "%"}, {"measurement": "C", "setting": "[3]; 60° C. (in dark place), Day 10", "result": 9.68, "unit": "µg/mL"}, {"measurement": "Purity", "setting": "[3]; 60° C. (in dark place), Day 10", "result": 95.99, "unit": "%"}, {"measurement": "C", "setting": "[3]; Illumination, 8:00", "result": 21.84, "unit": "µg/mL"}, {"measurement": "Purity", "setting": "[3]; Illumination, 8:00", "result": 97.62, "unit": "%"}, {"measurement": "C", "setting": "[3]; Illumination, Day 5", "result": 14.70, "unit": "µg/mL"}, {"measurement": "Purity", "setting": "[3]; Illumination, Day 5", "result": 88.52, "unit": "%"}, {"measurement": "C", "setting": "[3]; Illumination, Day 10", "result": 7.02, "unit": "µg/mL"}, {"measurement": "Purity", "setting": "[3]; Illumination, Day 10", "result": 74.89, "unit": "%"}]}, {"molecule": "CC(C)(O)c1ccccc1CC[C@@H](SCC1(CC(=O)[O-])CC1)c1cccc(/C=C/c2ccc3ccc(Cl)cc3n2)c1.COc1ccc2cc3[n+](cc2c1OC)CCc1cc2c(cc1-3)OCO2", "note": "[Montelukast berberine double salt, (R,E)-2-(1-(((1-(3-(2-(7-chloroquinoline-2-yl)vinyl)phenyl)-3-(2-(2-hydroxypropyl-2-yl)phenyl)propyl)thio)methyl)cyclopropyl)acetic acid and 9,10-dimethoxy-5,6-dihydro-[1,3]dioxocyclo [4,5-g]isoquino[3,2-a]isoquinolin-7-onium conjugate]", "values": [{"measurement": "Weight gain percentage of Day 5 (%)", "setting": "[1]", "result": 3.3, "unit": "%"}, {"measurement": "Weight gain percentage of Day 10 (%)", "setting": "[1]", "result": 4.9, "unit": "%"}, {"measurement": "inflammation-related cytokines (mRNA expression)", "setting": "[4]; 0.5 μmol/L, compared with single drug of berberine and montelukast of the same concentration", "result": "significantly reduce"}, {"measurement": "inflammation-related cytokines (mRNA expression)", "setting": "[4]; 1 μmol/L, hypertonic model 500 mOsm, four hours of administration, vs. HS group", "result": "significantly reduce"}, {"measurement": "inflammation-related cytokines (mRNA expression)", "setting": "[4]; 10 μmol/L, hypertonic model 500 mOsm, four hours of administration, vs. HS group", "result": "significantly reduce"}, {"measurement": "inflammation-related cytokines (mRNA expression)", "setting": "[5]; 1 μmol/L", "result": "significantly reduce"}, {"measurement": "inflammation-related cytokines (mRNA expression)", "setting": "[5]; 10 μmol/L", "result": "significantly reduce"}]}, {"molecule": "CC(C)(O)c1ccccc1CC[C@@H](SCC1(CC(=O)O)CC1)c1cccc(/C=C/c2ccc3ccc(Cl)cc3n2)c1", "note": "[Montelukast]", "values": [{"measurement": "Weight gain percentage of Day 5 (%)", "setting": "[1]", "result": 4.5, "unit": "%"}, {"measurement": "Weight gain percentage of Day 10 (%)", "setting": "[1]", "result": 5.3, "unit": "%"}]}]}
